Calls of active or inactive are those of the source. The rule behind the calls is not given here.
Assays:
[1] = tested on: Mycobacterium tuberculosis variant bovis BCG; test: Induction of ROS generation in Mycobacterium bovis BCG ATCC 35734 after 90 mins by cellrox-green reagent based assay; format: functional, organism-based
[2] = tested on: Mycobacterium tuberculosis variant bovis BCG; test: Bactericidal activity against Mycobacterium bovis BCG ATCC 35734 incubated for 5 days by broth dilution method; format: functional; settings: ATCC 35734, 120 h, time 5 day, read-out: MBC99.9
[3] = tested on: Mycobacterium tuberculosis variant bovis BCG; test: Bactericidal activity against Mycobacterium bovis BCG ATCC 35734 assessed as fold reduction in viability at 40 times MIC90 preincubated for 20 days under oxygen deprived condition followed by compound addition and measured after 5 days; format: functional; settings: time 5 day
[4] = tested on: Mycobacterium tuberculosis variant bovis BCG; test: Induction of oxidative stress Mycobacterium bovis BCG-pfurA-RFP ATCC 35734 assessed as activation of pfurA after 24 hrs by fluorescence assay; format: functional, organism-based
[5] = tested on: Mycobacterium tuberculosis variant bovis BCG; test: Bactericidal activity against Mycobacterium bovis BCG ATCC 35734 assessed as fold reduction in viability at 4 times MIC measured over 14 days by time-kill assay; format: functional; settings: time 14 day
Cell membrane [6] = test: Induction of cell envelope stress in Mycobacterium bovis BCG ATCC 35734 expressing piniBAC RFP at 100 times MIC90 after 24 hrs by fluorescence analysis; format: functional, subcellular; settings: Mycobacterium tuberculosis variant bovis BCG
[7] = tested on: Mycobacterium tuberculosis variant bovis BCG; test: Ratio of MIC for antimycobacterial activity against Mycobacterium bovis BCG ATCC 35734 in absence of glycerol to MIC for antimycobacterial activity against Mycobacterium bovis BCG ATCC 35734 in presence of glycerol; format: functional
Cell membrane [8] = test: Induction of membrane permeabilization in Mycobacterium bovis BCG ATCC 35734 at 4 times MIC after 8 hrs by SYTO9 and PI staining based fluorescence assay; format: functional, subcellular; settings: Mycobacterium tuberculosis variant bovis BCG
[9] = tested on: Mycobacterium tuberculosis variant bovis BCG; test: Antimycobacterial activity against Mycobacterium bovis BCG ATCC 35734 carrying katG loss-of-function mutant assessed fold reduction in MIC at 1 to 2 times of MIC90 incubated for 5 days; format: functional; settings: time 5 day
[10] = tested on: Mycobacterium tuberculosis variant bovis BCG; test: Bactericidal activity against Mycobacterium bovis BCG ATCC 35734 assessed as reduction in colony forming count at 4 times MIC measured over 28 days by time-kill assay; format: functional, organism-based; settings: time 28.0 day
Cell membrane [11] = test: Induction of cell membrane depolarization in Mycobacterium bovis BCG ATCC 35734 at 4 times MIC after 8 hrs by DiOC2 dye based flourescence assay; format: functional, subcellular; settings: Mycobacterium tuberculosis variant bovis BCG
[12] = tested on: Mycobacterium tuberculosis variant bovis BCG; test: Antimycobacterial activity against Mycobacterium bovis BCG ATCC 35734 incubated for 5 days by broth dilution method; format: functional; settings: ATCC 35734, 120 h, time 5 day
[13] = tested on: Mycobacterium tuberculosis variant bovis BCG; test: Bactericidal activity against Mycobacterium bovis BCG ATCC 35734 at 0.5 to 1 times MIC90 incubated for 5 days in presence of N-acetylcysteine; format: functional, organism-based; settings: time 5.0 day
[14] = tested on: Mycobacterium tuberculosis variant bovis BCG; test: Bactericidal activity against Mycobacterium bovis BCG ATCC 35734 at 0.5 to 1 times MIC90 incubated for 5 days in presence of thiourea; format: functional, organism-based; settings: time 5.0 day
[15] = tested on: Mycobacterium tuberculosis variant bovis BCG; test: Antimycobacterial activity against Mycobacterium bovis BCG ATCC 35734 carrying katG loss-of-function mutant assessed fold reduction in MIC at 1 to 2 times of MIC90 incubated for 5 days under solid agar medium; format: functional, organism-based; settings: time 5.0 day
[16] = tested on: Mycobacterium tuberculosis variant bovis BCG; test: Bactericidal activity against Mycobacterium bovis BCG ATCC 35734 assessed as reduction in colony forming unit at 8 times MIC measured after 21 days by time-kill assay; format: functional, organism-based; settings: time 21.0 day
[17] = tested on: Mycobacterium tuberculosis variant bovis BCG; test: Bactericidal activity against Mycobacterium bovis BCG ATCC 35734 at 0.5 to 1 times MIC90 incubated for 5 days in presence of TEMPO; format: functional, organism-based; settings: time 5.0 day
[18] = tested on: Mycobacterium tuberculosis H37Rv; test: Activation of Mycobacterium tuberculosis NDH-2 overexpressed in mc24517 inverted membrane vesicles assessed as increase in NADH oxidation; format: cell membranes; settings: Membrane vesicle, filed as activator
[19] = tested on: Mycobacterium tuberculosis variant bovis BCG; test: Antimycobacterial activity against Mycobacterium bovis BCG ATCC 35734 carrying katG loss-of-function mutant assessed fold reduction in MIC at 1 to 2 times of MIC90 incubated for 5 days under liquid medium; format: functional, organism-based; settings: time 5.0 day
[20] = tested on: Mycobacterium tuberculosis variant bovis BCG; test: Induction of ROS generation in Mycobacterium bovis BCG ATCC 35734 at 2 times of MIC90 measured upto 24 hrs by cellrox-green reagent based assay; format: functional, organism-based; settings: time hrs <=24
[21] = tested on: Mycobacterium tuberculosis variant bovis BCG; test: Bactericidal activity against Mycobacterium bovis BCG ATCC 35734 assessed as reduction in colony forming unit at 0.5 to 1 times MIC90 incubated for 5 days; format: functional, organism-based; settings: time 5.0 day

SMILES | Activity [1] | MBC [2] [µM] | fold change (FC) [3] | Activity [4] | fold change (FC) [5] | Activity (Cell membrane [6]) | Ratio [7] | Activity (Cell membrane [8]) | fold change (FC) [9] | Activity [10] | Activity (Cell membrane [11]) | MIC50 [12] [µM] | MIC90 [12] [µM] | further results
CCCCCCCn1c2c([n+](CCCCC)c1C)C(=O)c1ccccc1C2=O.[Br-] | Dose-Dependent Effect | 0.64 | 10 | Dose-Dependent Effect | 100000 | inactive | < 2 | inactive | 2 | Active | inactive | 0.16 | 0.27 | 
CCCCCCCCn1c2c([n+](CCCC)c1C)C(=O)c1ccccc1C2=O.[Br-] | Dose-Dependent Effect | 0.64 | 10 | Dose-Dependent Effect | 100000 | inactive | < 2 | inactive | 2 | Active | inactive | 0.15 | 0.26 | Activity [13]: Active; Activity [14]: Active; Activity [15]: Active; Activity [16]: Active; Activity [17]: Active; fold change (FC) [18]: 4.7; Activity [19]: Active; Activity [20]: Active; Activity [21]: Active
